According to ChEMBL document CHEMBL4406877, “Synthesis of 2-arylhydrazinylidene-3-oxo-4,4,4-trifluorobutanoic acids as new selective carboxylesterase inhibitors and radical scavengers” (Bioorg Med Chem Lett, 2019):
Active and inactive are the calls of the source. No cut-off for these calls is given here.

How the values were obtained:
[1] = Potency index, ratio of trolox IC50 to test compound IC50 for antioxidant activity assessed as decrease in ABTS radical cation scavenging activity; format: functional
[2] = Antioxidant activity assessed as decrease in ABTS radical cation scavenging activity every 1 min for 6 mins by UV-Vis spectrophotometric analysis; format: functional
[3] = target: Acetylcholinesterase (Homo sapiens) (UniProt P22303); assay: Inhibition of human erythrocyte AChE at 20 uM using acetylthiocholine iodide as substrate preincubated for 10 mins followed by substrate addition by Ellman's method relative to control
Liver carboxylesterase [4] = target: T1, Liver carboxylesterase (Sus scrofa, UniProt Q29550); assay: Inhibition of porcine liver carboxylesterase using 4-NPA as substrate preincubated for 10 mins followed by substrate addition by spectrophotometric analysis
T1 sequence (Q29550 whole entry): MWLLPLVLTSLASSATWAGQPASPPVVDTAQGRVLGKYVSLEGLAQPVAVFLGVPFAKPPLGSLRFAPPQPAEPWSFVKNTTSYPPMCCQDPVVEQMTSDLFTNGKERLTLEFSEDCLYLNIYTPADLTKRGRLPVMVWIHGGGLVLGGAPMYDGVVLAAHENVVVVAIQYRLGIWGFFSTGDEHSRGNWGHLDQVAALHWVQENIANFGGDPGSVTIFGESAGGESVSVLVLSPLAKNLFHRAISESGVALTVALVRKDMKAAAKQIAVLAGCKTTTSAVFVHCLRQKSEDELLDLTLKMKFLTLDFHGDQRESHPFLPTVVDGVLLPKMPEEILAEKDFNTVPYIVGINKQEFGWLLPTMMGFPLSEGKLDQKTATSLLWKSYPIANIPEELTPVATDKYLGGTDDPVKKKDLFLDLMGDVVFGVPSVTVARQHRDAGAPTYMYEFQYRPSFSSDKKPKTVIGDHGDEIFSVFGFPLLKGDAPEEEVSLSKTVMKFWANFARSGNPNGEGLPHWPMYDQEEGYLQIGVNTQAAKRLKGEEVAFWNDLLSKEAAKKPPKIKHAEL

[5] = target: Cholinesterase (Equus caballus) (UniProt P81908); assay: Inhibition of equine serum BuChE at 20 uM using […] as substrate preincubated for 10 mins followed by substrate addition by Ellman's method relative to control
Liver carboxylesterase [6] = target: T1, Liver carboxylesterase; assay: Inhibition of porcine liver carboxylesterase at 20 uM using 4-NPA as substrate preincubated for 10 mins followed by substrate addition by spectrophotometric analysis relative to control; settings: pig
[7] = Potency index, ratio of ascorbic acid IC50 to test compound IC50 for antioxidant activity assessed as decrease in ABTS radical cation scavenging activity; format: functional
[8] = Antioxidant activity assessed as decrease in ABTS radical cation scavenging activity after 1 min by UV-Vis spectrophotometric analysis relative to control; format: functional; design: scale not given: the % may be the effect or the level left
Liver carboxylesterase [9] = target: T1, Liver carboxylesterase; assay: Non-competitive inhibition of porcine liver carboxylesterase by double reciprocal Lineweaver-Burk plot analysis; settings: pig
Liver carboxylesterase [10] = target: T1, Liver carboxylesterase; assay: Competitive inhibition of porcine liver carboxylesterase by double reciprocal Lineweaver-Burk plot analysis

Acetylcholinesterase (Homo sapiens), sequence (P22303 whole entry): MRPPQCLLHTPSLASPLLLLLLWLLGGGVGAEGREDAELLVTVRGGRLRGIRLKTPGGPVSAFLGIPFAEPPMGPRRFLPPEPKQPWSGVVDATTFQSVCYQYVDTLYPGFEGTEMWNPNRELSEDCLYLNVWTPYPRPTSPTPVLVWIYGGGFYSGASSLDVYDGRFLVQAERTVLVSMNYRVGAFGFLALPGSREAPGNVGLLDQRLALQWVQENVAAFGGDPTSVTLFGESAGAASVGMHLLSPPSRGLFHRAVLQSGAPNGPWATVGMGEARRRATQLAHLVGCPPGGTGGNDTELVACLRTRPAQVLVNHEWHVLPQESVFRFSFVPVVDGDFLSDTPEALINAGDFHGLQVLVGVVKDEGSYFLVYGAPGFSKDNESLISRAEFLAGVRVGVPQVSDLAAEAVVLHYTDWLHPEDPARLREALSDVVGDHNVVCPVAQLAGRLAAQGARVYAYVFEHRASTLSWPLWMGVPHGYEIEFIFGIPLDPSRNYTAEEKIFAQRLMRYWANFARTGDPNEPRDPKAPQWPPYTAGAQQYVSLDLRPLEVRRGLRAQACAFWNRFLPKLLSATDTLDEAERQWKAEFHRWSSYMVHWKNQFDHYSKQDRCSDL
Cholinesterase (Equus caballus), sequence (P81908 whole entry): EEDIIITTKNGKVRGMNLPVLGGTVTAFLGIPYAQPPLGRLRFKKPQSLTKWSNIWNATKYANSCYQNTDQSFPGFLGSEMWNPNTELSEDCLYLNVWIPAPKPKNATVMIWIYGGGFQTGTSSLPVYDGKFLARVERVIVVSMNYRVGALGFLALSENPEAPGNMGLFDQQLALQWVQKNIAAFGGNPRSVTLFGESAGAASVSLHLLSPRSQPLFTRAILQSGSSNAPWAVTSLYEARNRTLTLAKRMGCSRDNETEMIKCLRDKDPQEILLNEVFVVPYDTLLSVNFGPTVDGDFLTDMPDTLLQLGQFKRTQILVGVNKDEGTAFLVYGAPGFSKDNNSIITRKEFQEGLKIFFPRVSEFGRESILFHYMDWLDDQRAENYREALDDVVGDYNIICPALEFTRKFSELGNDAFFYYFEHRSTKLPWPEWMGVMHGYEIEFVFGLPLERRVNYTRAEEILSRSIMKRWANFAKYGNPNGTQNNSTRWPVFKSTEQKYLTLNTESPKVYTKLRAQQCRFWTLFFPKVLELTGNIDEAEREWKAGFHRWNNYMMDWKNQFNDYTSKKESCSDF

Compound	Ratio IC50 [1]	IC50 [2]	inhibition [3]	IC50 (Liver carboxylesterase [4])	inhibition [5]	inhibition (INH) (Liver carboxylesterase [6]; 20 µM)	inhibition at 20 µM (Liver carboxylesterase [6]; porcine liver carboxylesterase, probe 4-NPA)	Ratio IC50 [7]	Activity [8]	alphaKi (Liver carboxylesterase [9])	Ki (Liver carboxylesterase [10])
CCOC(=O)c1ccc(N/N=C(\C(=O)O)C(=O)C(F)(F)F)cc1	0.25	96.4 µM	8.1%	0.324 µM	3.4%	–	–	–	–	–	–
O=[N+]([O-])c1ccc(OP(=O)(O)Oc2ccc([N+](=O)[O-])cc2)cc1	–	–	inactive	–	inactive	–	–	–	–	–	–
COc1ccc(N/N=C(/C(C)=O)C(=O)O)cc1	1.9	9.7 µM	inactive	–	5.4%	Not Active	–	–	–	–	–
CC(=O)/C(=N/Nc1ccc(C)cc1)C(=O)O	1.65	12.8 µM	inactive	–	inactive	–	9.3%	–	–	–	–
COc1ccc(N/N=C(\C(=O)O)C(=O)C(F)(F)F)cc1	1.9	11 µM	inactive	2.62 µM	17.3%	–	–	2	75%	–	–
Cc1c(C)c2c(c(C)c1O)CCC(C)(C(=O)O)O2 (stereo not drawn) [TROLOX]	–	20.4 µM	–	–	–	–	–	–	–	–	–
Cc1ccc(N/N=C(\C(=O)O)C(=O)C(F)(F)F)cc1	1.69	12.1 µM	inactive	0.63 µM	18.1%	–	–	2	–	1.11 µM	0.337 µM
CCOC(=O)c1ccccc1N/N=C(\C(=O)O)C(=O)C(F)(F)F	0.01	–	16.5%	0.0696 µM	8.7%	–	–	–	–	–	–
O=C(O)/C(=N\Nc1ccc([N+](=O)[O-])cc1)C(=O)C(F)(F)F	0.05	–	6.1%	2.76 µM	17.3%	–	–	–	–	–	–
O=C1O[C@H]([C@@H](O)CO)C(O)=C1O [ASCORBIC ACID]	0.98	21.4 µM	–	–	–	–	–	–	–	–	–
